Measurements published in patent US20090191253A2 (Creabilis Therapeutics S.P.A., priority 2005, published 2009).

Experiments:
PDGFRα = biological target: T1, PDGFRα (Homo sapiens, UniProt P16234); test: Kinase inhibition profiling PDGFRα (ELISA); assay type: biochemical
T1 construct: Cytoplasmic domain of human PDGFRα [550-1089; made in house; host or cells: baculovirus expression system
Method: (§1) Each test compound was weighed and dissolved in DMSO to make 1 mM stock solution. The stock solution was diluted with DMSO to achieve 20 μM. The compound solution was diluted with the assay buffer to achieve 0.8 μM.

JNK1 = biological target: T2, JNK1 (Homo sapiens, UniProt P45983); test: Kinase inhibition profiling JNK1 (ELISA); assay type: biochemical
T2 construct: Human JNK1 containing 364 amino acids was expressed; His (C); made in house; host or cells: E. coli
T2 sequence (P45983 1-364 limits assumed): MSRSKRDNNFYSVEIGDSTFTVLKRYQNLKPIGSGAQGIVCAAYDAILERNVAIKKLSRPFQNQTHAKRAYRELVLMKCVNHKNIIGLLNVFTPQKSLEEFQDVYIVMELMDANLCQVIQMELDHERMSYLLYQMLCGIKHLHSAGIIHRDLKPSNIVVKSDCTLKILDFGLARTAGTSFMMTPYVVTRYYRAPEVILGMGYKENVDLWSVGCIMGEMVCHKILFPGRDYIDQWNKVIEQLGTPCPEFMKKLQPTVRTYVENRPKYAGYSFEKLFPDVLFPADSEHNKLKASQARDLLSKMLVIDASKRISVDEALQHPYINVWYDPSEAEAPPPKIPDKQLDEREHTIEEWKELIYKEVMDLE
Method: as §1

CDK2/cyclinA = biological target: T3, CDK2/cyclinA (Homo sapiens, UniProt P24941); test: Kinase inhibition profiling CDK2/cyclinA (IMAP); assay type: biochemical
T3 construct: His (N); made in house; host or cells: baculovirus expression system
Method: as §1

LYNb = biological target: T4, LYNb (Homo sapiens, UniProt P07948); test: Kinase inhibition profiling LYNb (ELISA); assay type: biochemical
T4 construct: made in house; host or cells: baculovirus expression system
T4 sequence (P07948 1-491 isoform P07948-2): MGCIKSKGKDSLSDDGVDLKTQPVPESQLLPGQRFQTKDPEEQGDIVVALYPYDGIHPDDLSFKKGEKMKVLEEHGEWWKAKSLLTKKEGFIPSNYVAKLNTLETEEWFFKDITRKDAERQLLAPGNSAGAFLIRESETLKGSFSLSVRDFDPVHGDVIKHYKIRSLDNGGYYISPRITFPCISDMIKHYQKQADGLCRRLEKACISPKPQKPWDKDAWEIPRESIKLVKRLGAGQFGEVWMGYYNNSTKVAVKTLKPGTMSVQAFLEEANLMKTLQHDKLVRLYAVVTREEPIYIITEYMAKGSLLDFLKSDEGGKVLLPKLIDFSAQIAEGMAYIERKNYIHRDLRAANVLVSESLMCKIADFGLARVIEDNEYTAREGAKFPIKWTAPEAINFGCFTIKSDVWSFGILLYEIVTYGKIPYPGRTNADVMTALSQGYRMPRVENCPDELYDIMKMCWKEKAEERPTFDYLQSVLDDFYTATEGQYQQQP
Method: as §1

HMGB1 = biological target: T5, HMGB1 (Homo sapiens, UniProt P09429); test: Protein binding experiments by circular dichroism (CD); details: assuming 1:1 stoichiometry binding
T5 construct: host or cells: bacteria (inferred from the mention of bacterial contaminants)
T5 sequence (P09429 whole entry, species assumed): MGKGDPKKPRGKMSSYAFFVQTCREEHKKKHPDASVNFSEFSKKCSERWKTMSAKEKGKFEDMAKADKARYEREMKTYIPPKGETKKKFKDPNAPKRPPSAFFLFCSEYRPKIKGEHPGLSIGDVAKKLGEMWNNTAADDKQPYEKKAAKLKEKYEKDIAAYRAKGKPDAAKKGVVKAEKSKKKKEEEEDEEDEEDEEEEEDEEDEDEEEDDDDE
Description: All CD spectra were collected on a Jasco J710 spectropolarimeter equipped with a NesLab RTE111 thermal controller unity, using a quartz cylindrical cuvette with a 1 cm path length (Jasco). A scan speed of 20 nm/min, a bandwidth of o 1 nm, and a resolution of 1 nm was always used.
The spectra are heavily disturbed more than likely due to DMF.

CaMK4 = biological target: T6, CaMK4 (Homo sapiens, UniProt Q16566); test: Kinase inhibition profiling CaMK4 (IMAP); assay type: biochemical
T6 construct: His (N); made in house; host or cells: baculovirus expression system
T6 sequence (Q16566 whole entry): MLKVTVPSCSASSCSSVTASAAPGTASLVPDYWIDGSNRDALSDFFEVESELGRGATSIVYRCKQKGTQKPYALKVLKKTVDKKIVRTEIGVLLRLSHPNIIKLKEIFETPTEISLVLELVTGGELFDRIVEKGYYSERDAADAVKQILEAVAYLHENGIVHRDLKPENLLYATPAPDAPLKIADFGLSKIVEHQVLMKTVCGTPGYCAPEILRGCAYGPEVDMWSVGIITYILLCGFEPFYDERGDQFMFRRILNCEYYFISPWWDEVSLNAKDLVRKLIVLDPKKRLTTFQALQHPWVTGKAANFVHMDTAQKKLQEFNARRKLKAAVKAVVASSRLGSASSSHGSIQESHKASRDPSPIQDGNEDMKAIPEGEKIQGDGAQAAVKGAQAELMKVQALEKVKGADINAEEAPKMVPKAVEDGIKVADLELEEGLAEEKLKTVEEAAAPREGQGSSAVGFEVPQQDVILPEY
Method: (§2) In particular, the target kinases were Tyrosine kinases and Serine/Threonine kinases.
as §1

FGFR2 = biological target: T7, FGFR2 (Homo sapiens, UniProt P21802); test: Kinase inhibition profiling FGFR2 (ELISA); assay type: biochemical; note: ATP 20 µM
T7 construct: Cytoplasmic domain of human FGFR2 [399-821 amino; made in house; host or cells: baculovirus expression system
T7 sequence (P21802 399-821): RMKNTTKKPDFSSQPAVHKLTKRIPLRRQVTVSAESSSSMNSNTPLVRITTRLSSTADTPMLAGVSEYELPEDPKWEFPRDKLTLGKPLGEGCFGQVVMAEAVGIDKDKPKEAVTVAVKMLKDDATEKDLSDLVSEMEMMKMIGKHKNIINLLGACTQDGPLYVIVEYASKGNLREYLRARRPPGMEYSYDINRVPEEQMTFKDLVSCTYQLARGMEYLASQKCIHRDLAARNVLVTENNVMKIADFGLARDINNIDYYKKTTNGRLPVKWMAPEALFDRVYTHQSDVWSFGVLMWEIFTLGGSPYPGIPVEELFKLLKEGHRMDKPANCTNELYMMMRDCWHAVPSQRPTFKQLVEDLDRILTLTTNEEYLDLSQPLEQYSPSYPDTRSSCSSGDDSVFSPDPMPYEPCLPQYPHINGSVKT
Method: as §1

[1] = test system: bovine aorta smooth muscle cells (BASMC); test: Chemotaxis assay, fMLP-induced migration (modified Boyden chambers); assay type: cell-based; details: K-252a 3, 10, 30, 100 nM; fMLP 0.1 μM; overnight migration
Method: Chemotaxis assays were performed using a well known and validated protocol (1). Modified Boyden chambers were used with filters having 5-8 μm pore size and treated with collagen I (100 μg/ml in 0.5 M acetic acid) and fibronectin (10 μg/ml, Roche). BASMC (bovine aorta smooth muscle cells) were cultured in serum-free DMEM and a sample of 20,000-40,000 cells was added to the upper well of a Boyden chamber. […] Overnight cell migration was allowed at 37+/−0.5° C., then cells were scraped off and filters were fixed in methanol and stained in a solution of 10% crystal violet in 20% methanol. All experiments were performed at least twice in triplicate. […] Random cell migration, i.e. migration in the absence of chemoattractant, was given the arbitrary value of 100%. Statistical analysis was performed using Student's t test for pairwise comparisons of treatment, or an ANOVA model for the evaluation of treatments with increasing concentrations of a reagent.

FGFR1 = biological target: T8, FGFR1 (Homo sapiens, UniProt P11362); test: Kinase inhibition profiling FGFR1 (ELISA); assay type: biochemical
T8 construct: Cytoplasmic domain of human FGFR1 [396-820 amino; made in house; host or cells: baculovirus expression system
T8 sequence (P11362 398-822): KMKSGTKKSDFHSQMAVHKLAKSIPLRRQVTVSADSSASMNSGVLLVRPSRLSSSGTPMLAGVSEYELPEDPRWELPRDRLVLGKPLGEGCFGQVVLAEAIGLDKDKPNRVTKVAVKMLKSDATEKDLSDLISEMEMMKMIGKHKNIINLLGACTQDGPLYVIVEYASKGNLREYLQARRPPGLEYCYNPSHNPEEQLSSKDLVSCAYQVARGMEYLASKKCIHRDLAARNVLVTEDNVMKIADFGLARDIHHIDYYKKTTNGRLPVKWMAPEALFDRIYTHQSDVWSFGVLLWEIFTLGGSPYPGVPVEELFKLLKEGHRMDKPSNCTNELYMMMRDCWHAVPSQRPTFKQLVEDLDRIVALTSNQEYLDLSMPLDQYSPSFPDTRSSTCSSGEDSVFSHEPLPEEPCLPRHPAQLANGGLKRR
Method: as §1

MER = biological target: T9, MER (Homo sapiens, UniProt Q12866); test: Kinase inhibition profiling MER (ELISA); assay type: biochemical
T9 construct: made in house; host or cells: baculovirus expression system
T9 sequence (Q12866 528-999): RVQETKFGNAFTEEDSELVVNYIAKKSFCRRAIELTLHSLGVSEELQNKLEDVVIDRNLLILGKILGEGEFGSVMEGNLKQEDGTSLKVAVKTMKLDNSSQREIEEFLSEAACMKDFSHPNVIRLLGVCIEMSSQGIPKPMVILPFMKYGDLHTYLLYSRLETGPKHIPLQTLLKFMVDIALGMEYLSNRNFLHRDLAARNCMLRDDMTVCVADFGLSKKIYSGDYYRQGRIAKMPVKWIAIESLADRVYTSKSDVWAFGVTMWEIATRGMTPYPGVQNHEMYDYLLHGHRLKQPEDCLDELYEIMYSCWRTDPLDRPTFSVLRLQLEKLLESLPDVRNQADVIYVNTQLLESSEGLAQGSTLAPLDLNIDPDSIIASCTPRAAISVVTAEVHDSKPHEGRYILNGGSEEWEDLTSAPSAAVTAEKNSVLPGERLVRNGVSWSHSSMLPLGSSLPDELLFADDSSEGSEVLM
Method: as §1

[2] = test system: bovine aorta smooth muscle cells (BASMC); test: Proliferation assay, HMGB1-induced BASMC proliferation; assay type: cell-based; details: K-252a 3, 10, 30, 100 or 300 nM; HMGB1 25 ng/ml (1 nM); days 1-4
Method: Proliferation assays were performed using an already described and validated method (1). BASMC cells (bovine aorta smooth muscle cells) were seeded in 6-well plates (10^5 cells/well) and grown in RPMI medium supplemented with 20% FCS. After 24 h, the medium was replaced with serum-free RPMI and cell were then starved for 16 hours to synchronize the cell population. […] Each experimental point represents the mean+/−SD of triplicate determinations. The experiment was repeated three times. BASMC cell proliferation was determined by detaching the cells from the plate at the indicated times (on days 1, 2, 3, and 4 of culturing) and counting the Trypan-blue excluding cells under the microscope.

BRK = biological target: T10, BRK (Homo sapiens, UniProt Q13882); test: Kinase inhibition profiling BRK (ELISA); assay type: biochemical
T10 construct: made in house; host or cells: baculovirus expression system
T10 sequence (Q13882 2-450): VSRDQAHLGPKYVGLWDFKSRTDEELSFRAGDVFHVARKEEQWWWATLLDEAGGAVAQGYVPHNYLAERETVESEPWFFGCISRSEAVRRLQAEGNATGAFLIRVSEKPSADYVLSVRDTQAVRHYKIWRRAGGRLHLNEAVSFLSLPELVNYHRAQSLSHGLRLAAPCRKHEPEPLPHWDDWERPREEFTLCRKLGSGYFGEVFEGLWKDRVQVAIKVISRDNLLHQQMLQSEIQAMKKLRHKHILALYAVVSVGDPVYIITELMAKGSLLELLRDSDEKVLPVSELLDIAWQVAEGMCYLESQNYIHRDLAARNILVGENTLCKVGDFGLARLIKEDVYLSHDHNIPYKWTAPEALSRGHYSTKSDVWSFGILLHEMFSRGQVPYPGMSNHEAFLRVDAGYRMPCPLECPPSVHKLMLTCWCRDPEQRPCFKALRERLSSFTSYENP
Method: as §2, §1

AXL = biological target: T11, AXL (Homo sapiens, UniProt P30530); test: Kinase inhibition profiling AXL (ELISA); assay type: biochemical
T11 construct: made in house; host or cells: baculovirus expression system
T11 sequence (P30530 473-894 limits assumed): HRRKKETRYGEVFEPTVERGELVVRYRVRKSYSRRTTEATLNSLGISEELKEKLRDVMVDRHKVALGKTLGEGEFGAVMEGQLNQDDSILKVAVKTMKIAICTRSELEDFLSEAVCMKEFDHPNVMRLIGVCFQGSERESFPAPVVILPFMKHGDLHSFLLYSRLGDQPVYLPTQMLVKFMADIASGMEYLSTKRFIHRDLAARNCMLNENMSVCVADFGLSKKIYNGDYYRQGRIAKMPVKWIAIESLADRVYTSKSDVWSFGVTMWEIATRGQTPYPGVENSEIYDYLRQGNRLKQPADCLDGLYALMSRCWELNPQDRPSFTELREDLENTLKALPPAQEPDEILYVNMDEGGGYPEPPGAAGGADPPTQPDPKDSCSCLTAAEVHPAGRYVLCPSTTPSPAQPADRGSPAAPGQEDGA
Method: as §2, §1

T1 sequence (P16234 550-1089): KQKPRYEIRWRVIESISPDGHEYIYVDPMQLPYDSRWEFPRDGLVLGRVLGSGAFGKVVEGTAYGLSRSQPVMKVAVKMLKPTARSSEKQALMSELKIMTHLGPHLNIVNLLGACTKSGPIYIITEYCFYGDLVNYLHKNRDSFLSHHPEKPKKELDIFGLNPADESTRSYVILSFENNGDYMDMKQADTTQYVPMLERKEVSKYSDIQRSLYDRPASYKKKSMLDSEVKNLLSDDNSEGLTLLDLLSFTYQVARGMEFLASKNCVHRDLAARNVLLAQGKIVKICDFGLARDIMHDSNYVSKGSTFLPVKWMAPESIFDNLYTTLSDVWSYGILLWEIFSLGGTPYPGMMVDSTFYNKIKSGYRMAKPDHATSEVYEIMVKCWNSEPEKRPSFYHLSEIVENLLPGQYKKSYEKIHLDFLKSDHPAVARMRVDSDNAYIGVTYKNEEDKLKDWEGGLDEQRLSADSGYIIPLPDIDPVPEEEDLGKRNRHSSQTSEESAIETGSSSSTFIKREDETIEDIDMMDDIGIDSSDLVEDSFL

With `COC(=O)[C@]1(O)CC2O[C@@]1(C)n1c3ccccc3c3c4c(c5c6ccccc6n2c5c31)C(=O)NC4` [K-252a] the inhibition at 0.2 µM (PDGFRα) was 96.1%, the inhibition at 0.2 µM (JNK1) was 94.3% and the inhibition at 0.2 µM (CDK2/cyclinA) was 75.5%. For the same molecule, the inhibition at 0.2 µM (LYNb) was 51.2%, the Kd (HMGB1) was roughly 2 µM and the inhibition at 0.2 µM (CaMK4) was 0%. The inhibition at 0.2 µM (FGFR2) was 67.2%, the “cell migration induced by fMLP” value [1] was “does not interfere with cell migration induced by fMLP, whatever the concentration tested” and the inhibition at 0.2 µM (FGFR1) was 57.9%. For the same molecule, the inhibition at 0.2 µM (MER) was 80.8%, the “HMGB1-induced BASMC cell proliferation” value [2] was “antagonizes BASMC cell proliferation at all the concentrations tested in a time-dependent fashion and in a nM range” and the inhibition at 0.2 µM (BRK) was 35.8%. For the same molecule, the inhibition at 0.2 µM (AXL) was 51.5%.
